Reference: PubChem BioAssay AID2060901 (Molecular Pharmacology Branch, DTP, NCI, 2025)

Test system: 422866-222-R5-J1-PDC complex spheroids viability
Assay: Anticancer human tumor 422866-222-R5-J1-PDC patient-derived pancreatic adenocarcinoma cell line growth inhibition [RAS]
Settings: for IC50: curve of first compound; for viability, T/C: stronger effect = lower value
Method in brief: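 Tumour cells grown as complex spheroids with HUVEC endothelial cells and mesenchymal stem cells, treated with RAS pathway inhibitor combinations. Each agent spans half-log steps from near clinical Cmax, or 10 microM where Cmax is unknown.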
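Note: spheroids exposed to compounds for 7 days.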
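Throughout, for viability, T/C: 100% = DMSO vehicle control viability.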

CC(C)n1nc(-c2ccc3oc(N)nc3c2)c2c(N)ncnc21 + CCn1c(-c2cc(N3CCN(C)CC3)cnc2C(C)OC)c2c3cc(ccc31)-c1csc(n1)CC(NC(=O)C1CC1C)C(=O)N1CCCC(N1)C(=O)OCC(C)(C)C2
IC50 (second compound 0.000949 µM): < 0.316 nM
IC50 (second compound 0.003 µM): < 0.316 nM
IC50 (second compound 0.00949 µM): < 0.316 nM
IC50 (second compound 0.03 µM): < 0.316 nM
IC50 (second compound 0.0949 µM): < 0.316 nM
IC50 (second compound 0.3 µM): < 0.316 nM
viability, T/C (second compound 0.000949 µM, first compound 0.000316 µM): 35.2%
viability, T/C (second compound 0.000949 µM, first compound 0.001 µM): 28.7%
viability, T/C (second compound 0.000949 µM, first compound 0.00316 µM): 24.4%
viability, T/C (second compound 0.000949 µM, first compound 0.01 µM): 24.5%
viability, T/C (second compound 0.000949 µM, first compound 0.0316 µM): 19.7%
viability, T/C (second compound 0.000949 µM, first compound 0.1 µM): 21%
viability, T/C (second compound 0.003 µM, first compound 0.000316 µM): 24.4%
viability, T/C (second compound 0.003 µM, first compound 0.001 µM): 22.4%
viability, T/C (second compound 0.003 µM, first compound 0.00316 µM): 19.5%
viability, T/C (second compound 0.003 µM, first compound 0.01 µM): 17%
viability, T/C (second compound 0.003 µM, first compound 0.0316 µM): 14.3%
viability, T/C (second compound 0.003 µM, first compound 0.1 µM): 14.4%
viability, T/C (second compound 0.00949 µM, first compound 0.000316 µM): 22.5%
viability, T/C (second compound 0.00949 µM, first compound 0.001 µM): 16.5%
viability, T/C (second compound 0.00949 µM, first compound 0.00316 µM): 17.8%
viability, T/C (second compound 0.00949 µM, first compound 0.01 µM): 14.2%
viability, T/C (second compound 0.00949 µM, first compound 0.0316 µM): 13.8%
viability, T/C (second compound 0.00949 µM, first compound 0.1 µM): 11.2%
viability, T/C (second compound 0.03 µM, first compound 0.000316 µM): 19.3%
viability, T/C (second compound 0.03 µM, first compound 0.001 µM): 16.1%
viability, T/C (second compound 0.03 µM, first compound 0.00316 µM): 19.1%
viability, T/C (second compound 0.03 µM, first compound 0.01 µM): 15.7%
viability, T/C (second compound 0.03 µM, first compound 0.0316 µM): 11.6%
viability, T/C (second compound 0.03 µM, first compound 0.1 µM): 8.47%
viability, T/C (second compound 0.0949 µM, first compound 0.000316 µM): 17.7%
viability, T/C (second compound 0.0949 µM, first compound 0.001 µM): 20.1%
viability, T/C (second compound 0.0949 µM, first compound 0.00316 µM): 18.3%
viability, T/C (second compound 0.0949 µM, first compound 0.01 µM): 14.2%
viability, T/C (second compound 0.0949 µM, first compound 0.0316 µM): 12.2%
viability, T/C (second compound 0.0949 µM, first compound 0.1 µM): 10.9%
viability, T/C (second compound 0.3 µM, first compound 0.000316 µM): 19.7%
viability, T/C (second compound 0.3 µM, first compound 0.001 µM): 21.3%
viability, T/C (second compound 0.3 µM, first compound 0.00316 µM): 20.5%
viability, T/C (second compound 0.3 µM, first compound 0.01 µM): 16.4%
viability, T/C (second compound 0.3 µM, first compound 0.0316 µM): 14.5%
viability, T/C (second compound 0.3 µM, first compound 0.1 µM): 10.9%
